# In patent US9750449B2, “Method of assessing skin” (Johnson & Johnson Consumer Inc., priority 2003, dated 2017):
# Key:
# facial skin [1] = test: Visual observation of the appearance of wrinkles in treated areas; type: in vivo, human; settings: cream with 0.15% retinol applied daily, vehicle cream alone had no effect
# facial skin [2] = test: In vivo facial skin fluorescence after daily topical retinol cream versus vehicle; parameters: species or system human; settings: cheek
# From the text: In vivo fluorescence spectroscopy can be performed for example using a fiber optic probe attached to a spectrofluorimeter (e.g. the model SkinSkan (J Y Horiba, Edison, N.J.)). The method requires: a) a UV radiation source (e.g., a Xenon arc lamp or a mercury lamp), b) a method of selecting the radiation wavelength (e.g. a monochromator, a prism, or a grating), c) a method of delivery of the radiation to the tissue (e.g. a fiber bundle), d) a method of collection of the emitted radiation from the tissue (e.g. a fiber bundle), e) a method of selecting the emitted radiation wavelength (e.g. a monochromator, a prism, or a grating), and f) a method of detecting the emitted radiation (e.g. a photomultiplier, a single photodiode, a photodiode array, or a CCD array). See, e.g., Stamatas G N, et al., J Invest Dermatol 118(2):295-302, 2002.
# Measurements were preformed by placing the fiber optic probe in contact with the skin site of interest. Before each set of measurements, the instrument was spectrally calibrated for excitation and emission in the region 250-650 nm. […]
# Acquisition of excitation spectra was the preferred method of measuring in vivo skin fluorescence. […]
# In order to account for variations in skin native pigmentation that attenuates the detected fluorescence signal, fluorescence intensity was normalized with the diffuse reflectance signal of the same skin site at the corresponding wavelength. […] The measured fluorescence in this wavelength region arises from the dermis (Gillies et al, 2000, Kollias et al, 1998), which means that excitation light has to travel through the whole epidermis where it is attenuated by epidermal melanin and proteins, both of which absorb strongly in the UV. […] Furthermore, the intensity of the light source is low below 300 nm and normalization of the fluorescence by the diffuse reflectance signal in this wavelength range amplified the noise. […] To overcome this problem, the tryptophan fluorescence signal may be normalized to another fluorescence band, rather than to the diffuse reflectance value at 295 nm. […]
smiles,measurement,setting,value
CC1=C(/C=C/C(C)=C/C=C/C(C)=C/CO)C(C)(C)CCC1 [retinol],appearance of wrinkles (visual observations),facial skin [1],reduction in the appearance of wrinkles
same,rate of decrease in the 295 nm band fluorescence,"facial skin [2]; cream with 0.15% retinol and SPF 15 sunscreen applied daily, measured at baseline, 3 and 6 months, placebo −0.04 units/month",−0.01 units/month
same,change of the 390 nm band fluorescence over the period of the study,"facial skin [2]; cream with 0.15% retinol applied daily, 6 months",did not significantly change
same,normalized tryptophan fluorescence values (I295nm/I390nm) over time,"facial skin [2]; cream with 0.15% retinol applied daily, 6 months, p<0.05 versus vehicle (−0.062±0.029 ratio units per month)",remained virtually constant
